Assay results reported in PubChem BioAssay (NCI).
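Each compound was tested at five concentrations against cells in 96-well plates for 48 hours. At the TGI there is no net growth.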 Where a SMILES comes first, the peptide text is derived from it. [ ]: non-standard residue; d: D form. The star is where a group is joined. Phe(4-NO2) = N[CH](Cc1ccc([N+](=O)[O-])cc1)C(=O)O; Boc = CC(C)(C)OC(=O)*; OtBu = CC(C)(C)O*

Legend:
Assay in all cases: NCI tumour cell line growth inhibition, 48 h
[1] = tested on: 786-0 renal
[2] = tested on: A549 NSCLC
[3] = tested on: ACHN renal
[4] = tested on: CAKI-1 renal
[5] = tested on: CCRF-CEM leukemia
[6] = tested on: COLO 205 colon
[7] = tested on: DU-145 prostate
[8] = tested on: EKVX NSCLC
[9] = tested on: HCC-2998 colon
[10] = tested on: HCT-116 colon
[11] = tested on: HCT-15 colon
[12] = tested on: HL-60(TB) leukemia
[13] = tested on: HOP-62 NSCLC
[14] = tested on: HOP-92 NSCLC
[15] = tested on: HT29 colon
[16] = tested on: IGROV1 ovarian
[17] = tested on: K-562 leukemia
[18] = tested on: KM12 colon
[19] = tested on: LOX IMVI melanoma
[20] = tested on: M14 melanoma
[21] = tested on: MALME-3M melanoma
[22] = tested on: MCF7 breast
[23] = tested on: MDA-MB-231 breast
[24] = tested on: MDA-MB-435
[25] = tested on: MDA-N
[26] = tested on: MOLT-4 leukemia
[27] = tested on: NCI-H226 lung
[28] = tested on: NCI-H23 lung
[29] = tested on: NCI-H460 lung
[30] = tested on: NCI-H522 lung
[31] = tested on: NCI/ADR-RES ovarian
[32] = tested on: OVCAR-3 ovarian
[33] = tested on: OVCAR-4 ovarian
[34] = tested on: OVCAR-5 ovarian
[35] = tested on: OVCAR-8 ovarian
[36] = tested on: PC-3 prostate
[37] = tested on: RPMI-8226 leukemia
[38] = tested on: RXF 393 renal
[39] = tested on: SF-268 CNS
[40] = tested on: SF-295 CNS
[41] = tested on: SF-539 CNS
[42] = tested on: SK-MEL-2 melanoma
[43] = tested on: SK-MEL-28 melanoma
[44] = tested on: SK-MEL-5 melanoma
[45] = tested on: SK-OV-3 ovarian
[46] = tested on: SN12C renal
[47] = tested on: SNB-19 CNS
[48] = tested on: SNB-75 CNS
[49] = tested on: SR leukemia
[50] = tested on: SW-620 colon
[51] = tested on: T-47D breast
[52] = tested on: TK-10 renal
[53] = tested on: U251 CNS
[54] = tested on: UACC-257 melanoma
[55] = tested on: UACC-62 melanoma
[56] = tested on: UO-31 renal
[57] = tested on: A498 renal
[58] = tested on: HS 578T breast

Measured: TGI

CC(=O)NC(CCC(=O)OC(C)(C)C)C(=O)NC(CCC(=O)OC(C)(C)C)C(=O)NC(Cc1ccc([N+](=O)[O-])cc1)C(=O)NC(CCCCNC(=O)OC(C)(C)C)C(=O)NC(CCCCNC(=O)OC(C)(C)C)C(=O)NCC(=O)O (stereo unspecified) (Ac-E(OtBu)E(OtBu)[Phe(4-NO2)]K(Boc)K(Boc)G-OH; configuration not given here)
53.5 µM: [20]
not listed: [57] | [58]
> 100 µM: all other assays above

Cc1ccc(Nc2nc(C)c(C(=O)CC(=O)C(=O)Nc3ccc(Cl)cc3)s2)cc1
not listed: [15] | [27] | [31] | [33] | [35]
> 100 µM: all other assays above

COc1ccc2cc(C(=O)Nc3ccc(O)c(C(=O)O)c3)ccc2c1OC
not listed: [2] | [6] | [14] | [38] | [40] | [57] | [58]
> 100 µM: all other assays above

O=C(N=Nc1ccc(Br)cc1)NNc1ccc(Br)cc1
47.1 µM: [27]
33.1 µM: [15]
26 µM: [26]
74 µM: [45]
64.5 µM: [43]
30.5 µM: [32]
78 µM: [37]
31 µM: [30]
30.7 µM: [14]
68.9 µM: [28]
57.1 µM: [34]
27.2 µM: [55]
52.9 µM: [4]
28.7 µM: [38]
25 µM: [17]
61.9 µM: [48]
46.1 µM: [24]
32.6 µM: [13]
65.2 µM: [56]
48.9 µM: [6]
> 100 µM: [57] | [7] | [12] | [35] | [40] | [47] | [49] | [51]
31.8 µM: [20]
44 µM: [29]
35.1 µM: [18]
58.2 µM: [11]
40.8 µM: [22]
64.7 µM: [16] | [25]
18.2 µM: [5]
31.9 µM: [36]
55.7 µM: [9]
26.9 µM: [44]
43.3 µM: [31]
34.7 µM: [53]
87.1 µM: [21]
47.2 µM: [23]
37.9 µM: [42]
31.3 µM: [10]

C=C(CN(C)C)C1(c2ccccc2)CC2(CCCC2)C(=O)O1 (stereo unspecified)
78.1 µM: [26]
56.1 µM: [14]
53.4 µM: [5]
82.4 µM: [28]
74.7 µM: [6] | [15]
53.8 µM: [12]
47.5 µM: [30]
62.9 µM: [56]
not listed: [31] | [49]
> 100 µM: all other assays above
